Measured values from patent US20140050779A1, “[…]-2 INHIBITORS AND USES THEREOF” (SINGAPORE HEALTH SERVICES PTE. LTD., priority 2011, published 2014).

Columns and labels:
hM1 = target: T1, hM1 (Homo sapiens, UniProt P11229); assay: himbacine binding to cloned muscarinic receptor subtypes; conditions: cloned receptor subtype; data not shown
T1 sequence (P11229 1-460): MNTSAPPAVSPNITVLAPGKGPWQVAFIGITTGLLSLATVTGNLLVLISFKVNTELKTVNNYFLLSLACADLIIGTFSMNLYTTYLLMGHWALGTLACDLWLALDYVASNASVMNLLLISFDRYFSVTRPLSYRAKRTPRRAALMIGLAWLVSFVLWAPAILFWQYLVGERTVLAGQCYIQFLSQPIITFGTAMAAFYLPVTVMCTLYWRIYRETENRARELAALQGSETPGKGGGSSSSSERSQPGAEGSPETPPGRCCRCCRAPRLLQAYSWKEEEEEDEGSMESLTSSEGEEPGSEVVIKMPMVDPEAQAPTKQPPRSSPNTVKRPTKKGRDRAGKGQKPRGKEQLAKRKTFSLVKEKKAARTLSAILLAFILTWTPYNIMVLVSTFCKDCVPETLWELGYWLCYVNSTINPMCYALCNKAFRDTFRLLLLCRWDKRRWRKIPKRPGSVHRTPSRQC

hM5 = target: T2, hM5 (Homo sapiens, UniProt P08912); assay: as above; conditions: cloned receptor subtype; data not shown
T2 sequence (P08912 1-532): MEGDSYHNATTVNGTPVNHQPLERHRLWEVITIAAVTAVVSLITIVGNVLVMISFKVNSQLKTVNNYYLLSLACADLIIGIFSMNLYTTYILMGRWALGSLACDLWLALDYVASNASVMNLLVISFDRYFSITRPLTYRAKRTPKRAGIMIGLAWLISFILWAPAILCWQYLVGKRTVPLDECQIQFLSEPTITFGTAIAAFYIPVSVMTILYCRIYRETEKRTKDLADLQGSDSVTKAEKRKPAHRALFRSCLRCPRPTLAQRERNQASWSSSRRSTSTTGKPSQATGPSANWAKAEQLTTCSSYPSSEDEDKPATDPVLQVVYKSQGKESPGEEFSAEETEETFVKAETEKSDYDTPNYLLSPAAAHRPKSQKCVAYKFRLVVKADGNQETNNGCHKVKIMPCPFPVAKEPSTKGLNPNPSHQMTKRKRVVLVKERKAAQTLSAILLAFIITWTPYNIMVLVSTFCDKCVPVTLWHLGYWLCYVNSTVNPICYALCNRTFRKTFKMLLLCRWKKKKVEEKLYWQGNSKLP

TGase 1 transcript = assay: qPCR of TGases mRNA in mouse scleral fibroblasts after muscarinic agents; assay type: cell-based; conditions: 0.01-10 μM for 5 days, qPCR normalized to GAPDH
Procedure: P2 cultured mouse scleral fibroblasts were treated with atropine or carbachol at different concentrations of 0.01 μM, 0.1 μM, […], 5 μM and 10 μM for 5 days. Following 5 days of treatment, the total RNA was extracted from these cells and TGases transcript level was quantified via qPCR analysis. Height of bars show the means of three independent samples and error bars represent standard deviation. Values are normalized against GAPDH house keeping genes.
All cells used in examples described herein were between passages 2-4. Passaged cells were plated at a concentration of 2×10^5/mL into 6 well plates containing DMEM with 10% FBS. The cells were seen to attach to the bottom of the culture wells after 4 hours. Old media was removed from wells and 1 mL of drug was added with fresh full medium and incubated at 37° C. Fresh drugs were replaced daily consecutively for the next 5 days to avoid oxidation. The drugs/media was removed and wells were washed twice with 1×PBS. 200 μl of RIPA lysis buffer was added per well and incubated for 5 minutes and cells were scrapped into an eppendorf tube. The cells were stored at −20° C. until sonication. The cells were sonicated on ice thrice at 20% output power for 5 seconds each time and rested 1 minute in between each turn. Cell debris was spun down at 12000 rpm for 20 minutes. The supernatant was poured into a new eppendorf tube and cell concentrations were determined using the Dc Protein assay Kit (Bio-Rad, MA). Passaged cells were plated at a concentration of 1×10^5 into 6 well plates containing DMEM with 10% FBS. The cells were seen to attach to the bottom of the culture wells after 4 hours. Freshly prepared muscarinic agents' at base line, 0.1, 1, 10 and 100 μM concentrations were added for 5 days (Table 2). The culture medium was removed and fresh medium containing the same muscarinic drug added every day to avoid drug changes such as atropine oxidation. Cell lysate was collected for relative quantitative (q) PCR and protein analysis at day 5.
Total RNA was isolated from cultured human and mouse scleral fibroblasts using TRIzol reagent (Invitrogen life technologies, USA) in accordance with the manufacturer's instructions Chomczynski P, Sacchi N., “Single-step method of RNA isolation by acid guanidinium thiocyanate-phenol-chloroform extraction”, Anal. Biochem. 1987 April; 162(1):156-9. Genomic DNA was removed by digestion with DNase I (Amp Grade; Invitrogen-Gibco) for 15 minutes at room temperature. One microgram of total RNA was reverse-transcribed with random hexamers by using a first-strand cDNA synthesis kit (Invitrogen-Gibco). qPCR was performed in a 384-well plate format on an Roche 480 LightCycler Detection System (Roche Applied Science, Mannheim, Germany) with efficiency corrected software 4.0. PCR was performed using 50 ng of cDNA of each sample. The pre-validated hydrolysis probes for TG-2 were from human and mouse universal probe library (Roche, CA) and the primers for human and mouse are shown in Table 3. GAPDH Internal Standard (Roche) was used as an endogenous control. To standardize and evaluate scleral gene expression, aliquots of the same cDNA (50 ng) preparation were used as templates in all PCR reactions. The data was analyzed by comparative CT (MCT) method as previously described in Brink N, Szamel M, Young A R, Wittern K P, Bergemann J., “Comparative quantification of IL-1, IL-10, Il-10r, TNF and IL-7 mRNA levels in UV-irradiated human skin in vivo”, Inflamm Res. 2000 June; 49(6):290-6.

Compound | Kd (hM1) | Kd (hM5) | TGase 1 transcript level (TGase 1 transcript)
C[C@@H]1OC(=O)[C@H]2C[C@H]3CCCC[C@@H]3[C@@H](/C=C/[C@H]3CCC[C@H](C)N3C)[C@@H]12 [himbacine] | 83 nM | 296 nM | 
CN1[C@@H]2CC[C@H]1C[C@@H](OC(=O)C(CO)c1ccccc1)C2 (stereo partly drawn) [atropine] |  |  | down regulated
